From US4863874A, “Method for detecting phosphatidylinositol through binding to Concanavalin A” (The United States of America as represented by the …, priority 1986, dated 1989)
Like-named read-outs stand apart in the source and are kept apart here.

What was measured:
mouse spleen lymphocytes = assay: Suppression of Con A-induced lymphocyte mitogenesis ([3H]-thymidine); format: cell-based; settings: for DPM × 10^-3 ([3H]-thymidine, DNA synthesis): geometric mean of quadruplicate ±1 S E, no inhibitor 124 ± 10; for inhibition at 40000 µM: Mus musculus, Lymphocyte, read-out: % SUPPRESSION; for inhibition of Con A-induced lymphocyte mitogenesis: added simultaneously with Con A, in words
Excerpt: Mitogenic determination were made on 12 weeks old male C3 HeB/FeJ mouse (Jackson Laboratory, Bar Harbour, ME) spleen cells. The method used for cell preparation and assay of mitogenic activity is described elsewhere (Richardson, E. C., and Alving, C. R. (1984) Rev. Infect. Dis., Vol. 6, pages 532-534). Briefly spleen cells were extracted into HSB (HEM Research Inc., Rockville, MD), purified on a Ficoll-Hypaque solution, washed twice with HBS and suspended in a medium containing Eagles MEM with Earle's salts (GIBCO, Grand Island, NY), penicillin 100 μg/ml and streptomycin 100 μg/ml (GIBCO), 5×10^-5 M 2-mercaptoethanol (Matheson, Coleman and Bell, Norwood, OH) and 5% fetal bovine serum (MBA, Walkersville, MD). Cultures containing 2×10^5 viable cells/0.2 ml were prepared in 96 wells microtiter plates (Linbro Chemical Co., New Haven, CT) containing Con A ([…] Con A protein/ml culture) with either 40 μmoles/ml α-MM or myo-inositol. Cultures were incubated at 37° C. in 5% CO2 and air for 48 hours. Four hours prior to harvesting, the cells were pulsed with 1 μCi of [^3 H]-thymidine, harvested on glass fiber filters with a cell harvester and the radioactivity determined by liquid scintillation.
Cultures containing 2×10^5 mouse spleen lymphocytes in 0.2 ml medium were stimulated with 6 μg Con A/ml in the presence of 40 μmoles/ml of α-MM or myo-inositol and incubated for 48 hours. DNA synthesis was determined by pulsing the cultures 4 hours prior to harvesting with 1 μCi of [^3 H]-thymidine. The values represent the geometric mean of quadruplicate cultures ±1 S E.

Con A [1] = molecular target: T1, Con A (Canavalia ensiformis, UniProt P02866); assay: Inhibition of Con A binding to liposomes
T1 construct: purchased Sigma Chemical Co., St. Louis, MO
Method: Similar incubations as those described in FIG. 1 were set up with liposomes and Con A. α-MM (FIG. 2a) or myo-inositol (FIG. 2b) were used as inhibitors in the concentrations indicated.
Liposomes containing PL (DMPC, or DMPC/PI) and cholesterol in molar ratios 2/1.5 were used throughout. When PI was included in the liposomes, it was in a 1/1 molar ratio with DMPC. Preparation of liposomes (multilamellar vesicles) is reported in detail (Alving, C. R., Shichijo, S., and Mattsby-Baltzer, I. (1984) in Liposome Technology, (G. Gregoriadis, edition), Vol. II, pages 157-175, CRC, Boca Raton, FL). Briefly, lipids (PLs and cholesterol) were dried in vacuo in pear-shaped flasks and dispersed in a small volume of 0.15M NaCl with the aid of a few acid washed glass beads. The final PL concentration in the aqueous dispersion was 10 mM.
(§1) Studies on the binding of Con A to liposomes were performed as follows: Con A and inhibitors (if present) in the concentrations indicated in the individual figures were incubated with 100 μl of liposomes in a final volume of 1.0 ml of buffer for 45 minutes at 25° C. After incubation, liposomes were washed twice with 2 ml portions of 0.9% NaCl-0.01M NaHCO3 (pH 7.0) and collected by centrifugation at 140,000 g for 5 minutes. Bicarbonate-saline was the buffer used throughout for solution, washing and dilutions. Specific protein binding to liposomes was measured by a Lowry assay adapted to measurement of proteins on liposomes as described previously (Alving, C. R., and Kinsky, S. C. (1971) Immunochemistry, Vol. 8, pages 325-343).
Con A binding to mannose is widely accepted as the major binding specificity for Con A, and inhibition of Con A by α-MM is often used as a criterion for specificity of binding (Lis, H. and Sharon, N. (1973) Ann. Rev. Biochem., Vol. 42, pages 541-574). […] Since Con A binding was increased by the presence of PI in the liposomes we tried to inhibit it by adding increasing concentrations of myo-inositol as a soluble inhibitor. […] Therefore we conclude that the binding of Con A to PI is specific and probably involves the inositol moiety of PI.

Con A [2] = molecular target: T1, Con A; assay: Inhibition of Con A binding to liposomes by mixtures of α-MM and myo-inositol; settings: for relative inhibitory potency, PI present in the liposomes: liposomes containing PI; for type of inhibition on simultaneous addition of both inhibitors: simultaneous addition of both inhibitors to Con A and liposomes
Method: Similar incubations as those described in FIG. 1 were set up with liposomes and Con A. Myo-inositol and α-MM were mixed together as inhibitors in the concentrations indicated.
as §1
In order to characterize further the binding of Con A to liposomal PLs, and especially to PI, we mixed varying concentrations of α-MM with varrying concentrations of myo-inositol. Our reasoning was that if α-MM and myo-inositol complete for the same binding site we would record similar inhibitions to those shown in FIG. 2. […] The opposite occurred with liposomes lacking PI.

Con A [3] = molecular target: T1, Con A; assay: Binding to Con A by equilibrium dialysis, Scatchard plot
Excerpt: Equilibrium dialysis (microtechnique), as described by Karush, et al. (Karush, F., Karush, S. S. and Eisen, H. N. (1971) in Methods of Immunology and Immunochemistry (C. A. Williams, and M. W. Chase, Edition), Vol. III, pages 383-394, Academic Press, NY) was used to determine the binding of Con A to α-mannose, α-L-fucose, or myo-inositol. The data were plotted according to the method of Scatchard (Scatchard, G. (1949) Ann. N.Y. Acad. Sci., Vol. 51, pages 660-672).
The binding of Con A to α-D-[^3 H]-mannose or myo-[^3 H]-inositol in 0.01M bicarbonate-saline, pH 7.0, at room temperature was investigated by equilibrium dialysis. […] The ratio of the molar concentration of the bound sugar to that of protein is represented by r, c is the molar concentration of free sugar, n is the number of binding sites and K, the binding constant. A molecular weight of 108,000 for Con A was used in the calculations since Con A is a tetramer at neutral pH and the monomer mol wt. is 27,000.

[4] = 6 μg Con A/ml, 40 μmoles/ml inhibitor, 48 hours
[5] = myo-inositol and α-MM simultaneously used, FIG. 4

| SMILES | DPM × 10^-3 ([3H]-thymidine, DNA synthesis) (mouse spleen lymphocytes; [4]) | inhibition at 40000 µM (mouse spleen lymphocytes; 48 h) | inhibition of Con A-induced lymphocyte mitogenesis (mouse spleen lymphocytes) | inhibition at 1000 µM (Con A [1]; read-out: inhibition of Con A binding to DMPC liposomes) | inhibition at 1000 µM (Con A [1]; read-out: inhibition of Con A binding to DMPC/PI liposomes) | relative inhibitory potency, PI present in the liposomes (Con A [2]; [5]) | relative inhibitory potency, PI absent from liposomes (Con A [2]; myo-inositol and α-MM simultaneously used, liposomes lacking PI, FIG. 4) | type of inhibition on simultaneous addition of both inhibitors (Con A [2]) | inhibition at 40000 µM (mouse spleen lymphocytes; [4]) | IC50 (Con A [1]) | Kd (Con A [3]) | inhibition of Con A binding to liposomes containing PI (Con A [1]; increasing concentrations, liposomes containing PI) | inhibition of Con A binding to liposomes lacking PI (Con A [1]; increasing concentrations, liposomes lacking PI) | binding to Con A (Con A [3]; 0.01M bicarbonate-saline, pH 7.0, room temperature) |
| --- | --- | --- | --- | --- | --- | --- | --- | --- | --- | --- | --- | --- | --- | --- |
| CO[C@H]1O[C@H](CO)[C@@H](O)[C@H](O)[C@@H]1O [α-MM, α-methyl mannoside] | 1.3 ± 0.2 DPM × 10^-3 | 99% | more effective inhibitor than myo-inositol | ~50% | ~50% | could not provide similar inhibition | a more potent inhibitor than inositol | non-competitive |  |  |  |  |  |  |
| O[C@H]1[C@H](O)[C@@H](O)[C@H](O)[C@@H](O)[C@H]1O [myo-inositol] | 86 ± 8 DPM × 10^-3 |  | significant inhibition was observed |  |  | the more potent inhibitor |  | non-competitive | 31% | 10 mM | 769 µM |  |  |  |
| C[C@@H]1O[C@@H](O)[C@@H](O)[C@H](O)[C@@H]1O [α-L-fucose] |  |  | No inhibition |  |  |  |  |  |  |  |  | no inhibition was observed | no inhibition was observed | No binding could be detected |
